Papp data for eight molecules are collected here from ChEMBL document CHEMBL1144237, “Novel HCV NS5B polymerase inhibitors derived from 4-(1',1'-dioxo-1',4'-dihydro-1'lambda(6)-benzo[1',2',4']thiadiazin-3'-yl)-5-hydroxy-2H-pyridazin-3-ones. Part 5: Exploration of pyridazinones containing 6-amino-substituents” (Bioorg Med Chem Lett, 2008).

A word on the Papp: it is the rate of passage across a membrane or cell layer, normalised by area and donor concentration.

A short description of the series: Apparent permeability across human Caco-2 cell membrane. Type of series: ADME, cell-based. (In general: Caco-2 monolayers are a common model of the intestinal barrier.)
As to `CC(C)CCn1nc(-c2cccs2)c(O)c(C2=Nc3ccc(NS(C)(=O)=O)cc3S(=O)(=O)N2)c1=O`, the Papp was 0.02 ×10⁻⁶ cm/s. Next, `CS(=O)(=O)Nc1ccc2c(c1)S(=O)(=O)N=C(c1c(O)c(N3CCCC3)nn(CCC3CC3)c1=O)N2`: 0.22 ×10⁻⁶ cm/s. Take `CC(C)(C)CCn1nc(N2CCCC2)c(O)c(C2=NS(=O)(=O)c3cc(NS(C)(=O)=O)ccc3N2)c1=O`: the Papp came out at 0.37 ×10⁻⁶ cm/s. Consider `CC(C)CCn1nc(N(C)C(C)C)c(O)c(C2=NS(=O)(=O)c3cc(NS(C)(=O)=O)ccc3N2)c1=O`, for which the Papp turned out to be 0.77 ×10⁻⁶ cm/s.

On to `CC(C)CCn1nc(N2CCOCC2)c(O)c(C2=NS(=O)(=O)c3cc(NS(C)(=O)=O)ccc3N2)c1=O`, for which the apparent permeability (Papp) came to 0.021 ×10⁻⁶ cm/s. Turning to `CC(C)CCn1nc(N2CCCC2)c(O)c(C2=Nc3ccc(NS(C)(=O)=O)cc3S(=O)(=O)N2)c1=O`, the Papp is 0.32 ×10⁻⁶ cm/s. As for `CCN(CC)c1nn(CCC(C)C)c(=O)c(C2=NS(=O)(=O)c3cc(NS(C)(=O)=O)ccc3N2)c1O`, the Papp came out at 0.3 ×10⁻⁶ cm/s. As for `CCCN(C)c1nn(CCC(C)C)c(=O)c(C2=NS(=O)(=O)c3cc(NS(C)(=O)=O)ccc3N2)c1O`, the figure is 0.12 ×10⁻⁶ cm/s.
